Reference: patent US7183440B2, “Pharmaceutically useful compounds” (priority 2005, dated 2007)
Read-outs that look alike come from different tables or passages of the source.

Tests used:
[1] = test system: HSF1; details: cited from earlier work
[2] = test system: NF-κB; details: at the same concentration (125–500 μM); cited from earlier work
[3] = Blood pressure of the anaesthetized rat, intravenous infusion; assay type: in vivo; details: doses from 30 μg/kg/min
Excerpt: Most prostaglandins have strong effects on vascular smooth muscle, and will lower blood pressure in animals and humans. A compound can be tested for its effect on the blood pressure of the anaestheized rat. Prostaglandins A1 and E1 can be used for comparison. Male Wistar rats were anaesthetized and test drugs can be infused intravenously. Blood pressure and heart rate can be recorded from the femoral artery. […] It can be determined whether or not a test compound affects blood pressure at various dosages. As a control, solvent alone can be used.

[4] = test system: NF-κB; assay: Luciferase activity of NF-κB-LUC transfected HeLa cell pool after stimulation; assay type: cell-based, human; details: resistant HeLa cell pool, quadruplicate samples; control 1369±149
Excerpt: (§1) The fragment Kpn I-BamH I from the pGL3 basic vector containing the luciferase gene (PROMEGA) was inserted in the pcDNA3 vector (INVITROGEN) digested with Bgl II-KpnI. (This digestion removes the CMV-promoter from pcDNA3.) The resulting new vector was digested with Kpn I-Hind III and a promoter containing a ‘5×NF-κB binding sites-TATA box’ sequence was inserted upstream of the luciferase gene. This vector has been named STM.
(§2) To obtain stable HeLa cell lines expressing the luciferase gene under the control of NF-κB, HeLa cells were transfected (using lipofectamine plus GIBCO) with the STM-Pvu I linearized vector, and selected for 20 days with G418 (800 μg/ml). After selection, the resistant HeLa cell pool was controlled (in quadruplicate samples) for luciferase activity after stimulation with TNFα, IL-1 and TPA.

[5] = test system: HSF; assay: HSF activation, luciferase reporter controlled by the human hsp70 promoter in HeLa cell clone 13B; assay type: cell-based; details: read-out: HSF AC200/μM
Procedure: (§3) HeLa cell clone 13B, stably transfected with a luciferase reporter plasmid controlled by the human hsp70 promoter, and HeLa κB-transformed cells, stably transfected with a luciferase reporter plasmid controlled by a synthetic NF-κB-STM construct, were maintained in DMEM medium supplemented with 10% FBS, L-glutamine (2 mM) and G418 (250 μg/ml) at 37° C. in a 5% CO2 humidified atmosphere.
(§4) Cells were seeded at a density of 4×10^4 cells/well in 96-well plates. After 18–20 h, the medium was removed and cells were treated for 8 h with the test compounds (100 μl) at the appropriate dilutions in serum-free medium. For the NF-κB-dependent reporter gene assay, cells were stimulated with TPA (25 ng/ml) 2 h after exposure to the compounds.
(§5) After incubation, the medium was removed and cells were lysed in 10 μl of lysis buffer. The luciferase activity was determined by adding 100 μl of substrate and measuring the release of light using a Victor 1420 microplate reader (Wallac, Finland).
(§6) The AC200/μM for HSF is the concentration at which the tested compound doubled the HSF activity in this assay. The IC50/μM for NF-κB is the concentration at which the tested compound halved the NF-κB activity in this assay. […] The LC50/μM is the concentration at which the tested compound killed half the cells in each assay. […] (n.d. means not done)

[6] = test system: NF-κB; assay: NF-κB-dependent luciferase reporter gene assay in HeLa κB-transformed cells stimulated with TPA; assay type: cell-based, human
Procedure: as §3, §4, §5, §1, §2, §6

[7] = test system: HeLa cells; assay: in vitro; details: read-out: Toxicity Neutral Red LC50/μM; HeLa cells; concentration that killed half the cells
Procedure: This assay was carried out on HeLa cells using a technique analogous to that described below in Example 36(b) for Monkey Kidney 37RC cells.
as §6
Cell viability was determined using the Neutral Red assay. 37RC cells were seeded at density of 6×10^4 cells/well in 24-well plates and incubated for 24 h. Confluent 37RC monolayers were treated with the test compounds at different dilutions for 24 h at 37° C. After incubation, the medium was removed and the cells were incubated with RPMI medium containing 40 μg/ml Neutral Red dye (500 μl/well). After 2 h at 37° C., the monolayers were washed with phosphate-buffered saline (PBS) and then with a solution containing 1% CaCl2 and 0.5% formaldehyde. After washing, a solution containing 1% acetic acid/50% ethanol was added to the monolayers (250 μl/well). After 10 min at room temperature, the absorbance was determined with a microplate reader (Victor 1420, Wallac) at 540 nm.

[8] = in vitro; assay type: cell-based; details: human
Procedure: HeLa cells were plated in 96-well microtiter plates in 100 μl culture medium (4×10^4/well). After 20 hours, the cells were exposed to the test compounds at different dilutions and incubated for the next 8 h at 37° C. in a 5% CO2 humidified atmosphere. After 6 h incubation, the Alamar Blue was added in an amount equal to 10% of the culture volume (10 μl). Two hours after the addition of the Alamar Blue, the fluorescence was measured using a Victor 1420 microplate reader.

[9] = test system: Sendai virus; assay: Replication of Sendai virus in 37RC cells, virus yield by haemagglutinin titration; assay type: cell-based; details: Respirovirus muris; 50% inhibitory dose/concentration at 24 hours, Sendai virus in 37RC cells; read-out: ID50/μM
Procedure: Monkey kidney 37RC cells were grown at 37° C. in RPMI medium supplemented with 5% foetal bovine serum (FBS), L-glutarine (2 mM) and antibiotics. Sendai virus was grown in the allantoic cavity of 10-day-old embryonated eggs. Viral titre was expressed in haemagglutinating units (HAU) per ml; haemagglutinin titration was done according to standard procedures, as described in C. Amici et al. (J. Virol. 68: 6890–6899, 1994). […] Confluent 37RC monolayers were infected with Sendai Virus (5 HAU/ml) for 1 h at 37° C. After 1 hour incubation, viral inoculum was removed and cells were treated with the test compounds at different concentrations. Virus yields were determined 24 h post infection by haemagglutinin titration. Mock-infected cells were treated identically and processed for cytotoxicity assay (Neutral Red assay) at the same time (see below). The results were expressed as HAU/ml (each point represents the mean of duplicate samples).

[10] = test system: Monkey kidney 37RC cells; assay type: cell-based; details: concentration 100% toxic to uninfected 37RC cells, visually by microscopy
[11] = in vitro; assay type: cell-based; details: monkey, 50% lethal dose/concentration, neutral red assay, 37RC cells, read-out: LC50/μM
Procedure: Cell viability was determined using the Neutral Red assay.

**Q.** For `O=C1C=CCC1` [cyclopent-2-en-1-one], which “concentration able to activate HSF1 and trigger synthesis of HSP70” value [1] is on record?
**A.** 125 to 500 µM

**Q.** What about the “block of NF-κB activation by chemical or physiological inducers” value [2] of the same compound?
**A.** able to block NF-κB activation

**Q.** Which “effect on blood pressure” value [3] does the source give for `CCCCC[C@H](O)/C=C/[C@H]1C=CC(=O)[C@@H]1CCCCCCC(=O)O` [Prostaglandin A1] here?
**A.** dose-dependant falls in blood pressure

**Q.** Which luciferase activity [4] does the source give for `CCCCCCCCCCCCCC(=O)O[C@@H]1[C@@H](C)[C@@]2(O)[C@@H](C=C(CO)C[C@]3(O)C(=O)C(C)=C[C@@H]23)[C@H]2C(C)(C)[C@]12OC(C)=O` [TPA] here?
**A.** 7181±444

**Q.** What does the source list for “[(1R,2S)-2-(Naphthalen-2-ylsulfanyl)-4-oxocyclopentyl]-carbamic acid methyl ester; compound with benzene [CTM-237]”?
**A.** EC (2-fold HSF activity) [5]: 28 µM; IC50 [6]: 9 µM; CC50 [7]: 183 µM

**Q.** With TNFα as the compound, how does the luciferase activity [4] read?
**A.** 6111±1231

**Q.** Which “effect on blood pressure” value [3] does the source give for `CCCCC[C@H](O)/C=C/[C@H]1[C@H](O)CC(=O)[C@@H]1CCCCCCC(=O)O` [Prostaglandin E1] here?
**A.** dose-dependant falls in blood pressure

**Q.** With `CC(C)/C=C1/C(=O)C=CC1NC(=O)c1ccccc1` (stereo not drawn) [CTC-172, N-(5-iso-Butylidene-4-oxocyclopent-2-enyl)-benzamide] as the compound, how does the EC (2-fold HSF activity) ([5]; Homo sapiens, concentration at which the compound doubled HSF activity, HeLa clone 13B, 8 h treatment) read?
**A.** < 6.2 µM

**Q.** And the IC50 ([6]; Homo sapiens, concentration that halved NF-κB activity, HeLa reporter cells, TPA 25 ng/ml, 8 h treatment)?
**A.** < 6.2 µM

**Q.** What about the CC50 at 8 h [8] of the same compound?
**A.** 50 µM

**Q.** And the IC50 [9]?
**A.** 0.3 µM

**Q.** What about the TD100/μM [10] of the same compound?
**A.** 10 µM

**Q.** What about the CC50 at 24 h [11] of the same compound?
**A.** 4 µM
